For this assay, the target named is BTK (Homo sapiens (Human), UniProt Q06187). In words: Z'-LYTE kinase inhibition assay against BTK. The note with it: for inhibition at 0.1 µM: compound at 100 nM, ATP concentration at Km; for IC50: series of concentrations, GraphPad Prism 5. The format is biochemical. Summed up: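 Z′-LYTE FRET readout: 1.04-10.4 ng BTK with 2 μM Tyr 01 peptide, ATP at Km, in 50 mM HEPES pH 7.5, 10 mM MgCl2, 1 mM EGTA, 0.01% BRIJ-35, 1% DMSO. 60 min kinase reaction at room temperature, then 60 min development; IC50 from 10-point, 3-fold titrations.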

Bounds are passed on as bounds.

BTK, sequence (Q06187 whole entry): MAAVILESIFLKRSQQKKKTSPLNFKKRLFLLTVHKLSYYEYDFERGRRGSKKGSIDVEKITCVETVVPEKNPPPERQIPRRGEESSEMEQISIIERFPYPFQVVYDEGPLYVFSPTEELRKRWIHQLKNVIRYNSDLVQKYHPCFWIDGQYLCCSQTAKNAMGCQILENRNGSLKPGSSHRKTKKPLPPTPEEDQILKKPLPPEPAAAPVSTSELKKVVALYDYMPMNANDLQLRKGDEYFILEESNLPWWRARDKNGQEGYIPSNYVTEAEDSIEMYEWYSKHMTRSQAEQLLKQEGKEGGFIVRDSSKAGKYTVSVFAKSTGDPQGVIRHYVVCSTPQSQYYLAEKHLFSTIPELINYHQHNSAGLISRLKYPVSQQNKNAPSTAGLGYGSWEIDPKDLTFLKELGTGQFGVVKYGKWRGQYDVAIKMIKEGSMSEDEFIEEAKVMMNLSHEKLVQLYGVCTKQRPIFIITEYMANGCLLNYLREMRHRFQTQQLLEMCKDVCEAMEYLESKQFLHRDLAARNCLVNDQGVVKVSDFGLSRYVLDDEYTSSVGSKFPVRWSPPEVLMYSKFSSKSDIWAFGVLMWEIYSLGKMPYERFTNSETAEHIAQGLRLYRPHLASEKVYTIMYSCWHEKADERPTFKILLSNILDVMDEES

Regarding `C=CC(=O)N1CCC(c2cc(-c3ccc(C(=O)Nc4cc(C5CC5)ccn4)cc3F)n3cnccc23)C1` (stereo not shown) [C149, 4-(5-(1-acryloylpyrrolidin-3-yl)pyrrolo[1,2-c]pyrimidin-7-yl)-N-(4-cyclopropylpyridin-2-yl)-3-fluorobenzamide], the inhibition at 0.1 µM is less than 50%.
Same read-out and setting: the value for `C=CC(=O)N1CCC(c2cc(-c3ccc(C(=O)Nc4cc(OC)ccn4)cc3F)n3cnccc23)C1` (stereo not shown) [C150, 4-(5-(1-acryloylpyrrolidin-3-yl)pyrrolo[1,2-c]pyrimidin-7-yl)-3-fluoro-N-(4-methoxypyridin-2-yl)benzamide] was less than 50%; that for `C=CC(=O)N1CCC(c2cc(-c3ccc(C(=O)Nc4cc(C#N)ccn4)cc3F)n3cnccc23)C1` (stereo not shown) [C151, 4-(5-(1-acryloylpyrrolidin-3-yl)pyrrolo[1,2-c]pyrimidin-7-yl)-N-(4-cyanopyridin-2-yl)-3-fluorobenzamide] was less than 50%; that for `C=CC(=O)N1CCC(c2cc(-c3ccc(C(=O)Nc4cc(C(F)(F)F)ccn4)c(F)c3)n3cnccc23)C1` (stereo not shown) [C152, 4-(5-(1-acryloylpyrrolidin-3-yl)pyrrolo[1,2-c]pyrimidin-7-yl)-2-fluoro-N-(4-(trifluoro-methyl)pyridin-2-yl)benzamide] was less than 50%.
For `C=CC(=O)Nc1cccc(-c2cc(-c3ccc(C(=O)Nc4cc(C5CC5)ccn4)cc3F)cc3cncnc23)c1` [C153, 4-(8-(3-acrylamidophenyl)quinazolin-6-yl)-N-(4-cyclopropylpyridin-2-yl)-3-fluorobenzamide], the inhibition at 0.1 µM was greater than 50% and the IC50 was less than 100 nM.
`C=CC(=O)Nc1cccc(-c2cc(-c3ccc(C(=O)Nc4cc(C#N)ccn4)cc3F)cc3cncnc23)c1` [C154, 4-(8-(3-acrylamidophenyl)quinazolin-6-yl)-N-(4-cyanopyridin-2-yl)-3-fluorobenzamide] came in with an inhibition at 0.1 µM greater than 50%.
Same read-out and setting: the value for `C=CC(=O)N1CCC(c2cc(-c3ccc(C(=O)Nc4ccncc4)cc3)cc3cncnc23)C1` (stereo not shown) [C155, 4-(8-(1-acryloylpyrrolidin-3-yl)quinazolin-6-yl)-N-(pyridin-4-yl)benzamide] was less than 50%.
On the same count and under the same terms, to `C=CC(=O)Nc1cccc(-c2cc(-c3ccc(C(=O)Nc4cc(C#N)ccn4)c(OC)c3)cc3cncnc23)c1` [C156, 4-(8-(3-acrylamidophenyl)quinazolin-6-yl)-N-(4-cyanopyridin-2-yl)-2-methoxybenzamide] belongs less than 50%.
In turn, `C=CC(=O)Nc1cccc(-c2cc(-c3ccc(Oc4ccccn4)cc3F)cc3cnc(N)nc23)c1` [C157, N-(3-(2-amino-6-(2-fluoro-4-(pyridin-2-yloxy)phenyl)quinazolin-8-yl)phenyl)acrylamide] yielded an inhibition at 0.1 µM greater than 50% and an IC50 of less than 100 nM.
For `C=CC(=O)Nc1cccc(-c2cc(-c3ccc(Oc4ccccn4)c(F)c3)cc3cnc(N)nc23)c1` [C158, N-(3-(2-amino-6-(3-fluoro-4-(pyridin-2-yloxy)phenyl)quinazolin-8-yl)phenyl)acrylamide], in that order: greater than 50% and less than 100 nM.
`C=CC(=O)N1CCC(c2cc(-c3ccc(Oc4ccccn4)cc3F)n3cnccc23)C1` (stereo not shown) [C159, 1-(3-(7-(2-fluoro-4-(pyridin-2-yloxy)phenyl)pyrrolo[1,2-c]pyrimidin-5-yl)pyrrolidin-1-yl)prop-2-en-1-one] displayed an inhibition at 0.1 µM of less than 50%.
The same measure, in the same setting: to `C=CC(=O)N1CCC(c2cc(-c3ccc(Oc4ccccn4)c(F)c3)cc3cncnc23)C1` (stereo not shown) [C160, 1-(3-(6-(3-fluoro-4-(pyridin-2-yloxy)phenyl)quinazolin-8-yl)pyrrolidin-1-yl)prop-2-en-1-one] belongs greater than 50%.
`C=CC(=O)N1CCC(c2cc(-c3ccc(C(=O)Nc4cc(C#N)ccn4)cc3)n3cnccc23)C1` (stereo not shown) [C161, 4-(5-(1-acryloylpyrrolidin-3-yl)pyrrolo[1,2-c]pyrimidin-7-yl)-N-(4-cyanopyridin-2-yl)benzamide] returned an inhibition at 0.1 µM greater than 50% and an IC50 of less than 100 nM.
Molecule `C=CC(=O)N1CCC(c2cc(-c3ccc(C(=O)Nc4cc(OC)ccn4)cc3)n3cnccc23)C1` (stereo not shown) [C162, 4-(5-(1-acryloylpyrrolidin-3-yl)pyrrolo[1,2-c]pyrimidin-7-yl)-N-(4-methoxypyridin-2-yl)benzamide] had an inhibition at 0.1 µM of less than 50%.
`C=CC(=O)N1CCC(c2cc(-c3ccc(C(=O)Nc4cc(C5CC5)ccn4)cc3)n3cnccc23)C1` (stereo not shown) [C164, 4-(5-(1-acryloylpyrrolidin-3-yl)pyrrolo[1,2-c]pyrimidin-7-yl)-N-(4-cyclopropylpyridin-2-yl)benzamide] showed an inhibition at 0.1 µM greater than 50%.
The same measure, in the same setting: to `C=CC(=O)N1CCC(c2cc(-c3ccc(C(=O)Nc4cc(C5CC5)ccn4)c(F)c3)n3cnccc23)C1` (stereo not shown) [C165, 4-(5-(1-acryloylpyrrolidin-3-yl)pyrrolo[1,2-c]pyrimidin-7-yl)-N-(4-cyclopropylpyridin-2-yl)-2-fluorobenzamide] belongs less than 50%.
In turn, `C=CC(=O)Nc1cccc(-c2cc(-c3ccc(Oc4ccccn4)cc3OC)cc3cnc(N)nc23)c1` [C166, N-(3-(2-amino-6-(2-methoxy-4-(pyridin-2-yloxy)phenyl)quinazolin-8-yl)phenyl)acrylamide] returned an inhibition at 0.1 µM greater than 50% and an IC50 of less than 100 nM.
The molecule `C=CC(=O)N1CCC(c2cc(-c3ccc(Oc4ccccn4)c(OC)c3)n3cnccc23)C1` (stereo not shown) [C167, 1-(3-(7-(3-methoxy-4-(pyridin-2-yloxy)phenyl)pyrrolo[1,2-c]pyrimidin-5-yl)pyrrolidin-1-yl)prop-2-en-1-one] showed an inhibition at 0.1 µM of less than 50%.
`C=CC(=O)N1CCC(c2cc(-c3ccc(Oc4ccccn4)cc3OC)cc3cnc(N)nc23)C1` (stereo not shown) [C168, 1-(3-(2-amino-6-(2-methoxy-4-(pyridin-2-yloxy)phenyl)quinazolin-8-yl)pyrrolidin-1-yl)prop-2-en-1-one] showed an inhibition at 0.1 µM of less than 50%.
Same read-out and setting: to `C=CC(=O)N1CCC(c2cc(-c3ccc(Oc4ccccn4)cc3OC)n3cnccc23)C1` (stereo not shown) [C169, 1-(3-(7-(2-methoxy-4-(pyridin-2-yloxy)phenyl)pyrrolo[1,2-c]pyrimidin-5-yl)pyrrolidin-1-yl)prop-2-en-1-one] belongs less than 50%; to `C=CC(=O)Nc1cccc(-c2cc(-c3ccc(C(=O)Nc4ccccn4)cc3)c(N)c3cncnc23)c1` [C170, 4-(8-(3-acrylamidophenyl)-5-aminoquinazolin-6-yl)-N-(pyridin-2-yl)benzamide], less than 50%.
`C=CC(=O)Nc1cccc(-c2cc(-c3ccc(C(=O)Nc4cc(C5CC5)ccn4)cc3)c(N)c3cncnc23)c1` [C171, 4-(8-(3-acrylamidophenyl)-5-aminoquinazolin-6-yl)-N-(4-cyclopropylpyridin-2-yl)benzamide] came in with an inhibition at 0.1 µM greater than 50% and an IC50 of less than 100 nM.
Turning to `C=CC(=O)N1CCC(c2cc(-c3ccc(C(=O)Nc4cc(C#N)ccn4)c(F)c3)n3cnccc23)C1` (stereo not shown) [C172, 4-(5-(1-acryloylpyrrolidin-3-yl)pyrrolo[1,2-c]pyrimidin-7-yl)-N-(4-cyanopyridin-2-yl)-2-fluorobenzamide], the inhibition at 0.1 µM is less than 50%.
Still for that read-out and setting: to `C=CC(=O)Nc1cccc(-c2cc(-c3ccc(Oc4ccccn4)cc3F)c(N)c3cncnc23)c1` [C173, N-(3-(5-amino-6-(2-fluoro-4-(pyridin-2-yloxy)phenyl)quinazolin-8-yl)phenyl)acrylamide] belongs less than 50%.
Regarding `C=CC(=O)N1CCC(c2cc(-c3ccc(Oc4ccccn4)cc3F)c(N)c3cncnc23)C1` (stereo not shown) [C174, 1-(3-(5-amino-6-(2-fluoro-4-(pyridin-2-yloxy)phenyl)quinazolin-8-yl)pyrrolidin-1-yl)prop-2-en-1-one], the inhibition at 0.1 µM is less than 50%.
For the molecule `C=CC(=O)Nc1cccc(-c2cc(-c3ccc(Oc4cc(C(F)(F)F)ccn4)cc3)cc3cncnc23)c1` [C175, N-(3-(6-(4-((4-(trifluoromethyl)pyridin-2-yl)oxy)phenyl)quinazolin-8-yl)phenyl)acrylamide], the inhibition at 0.1 µM is greater than 50% and the IC50 is less than 100 nM.
For the molecule `C=CC(=O)Nc1cccc(-c2cc(-c3ccc(C(=O)Nc4cc(C#N)ccn4)cc3)c(N)c3cncnc23)c1` [C176, 4-(8-(3-acrylamidophenyl)-5-aminoquinazolin-6-yl)-N-(4-cyanopyridin-2-yl)benzamide], the inhibition at 0.1 µM is less than 50%.
In turn, `C=CC(=O)Nc1cccc(-c2cc(-c3ccc(C(=O)Nc4ccccn4)cc3F)c(N)c3cncnc23)c1` [C177, 4-(8-(3-acrylamidophenyl)-5-aminoquinazolin-6-yl)-3-fluoro-N-(pyridin-2-yl)benzamide] came in with an inhibition at 0.1 µM of less than 50%.
Molecule `C=CC(=O)Nc1cccc(-c2cc(-c3ccc(C(=O)Nc4ccccn4)cc3)c(N)c3cnc(N)nc23)c1` [C178, 4-(8-(3-acrylamidophenyl)-2,5-diamino-quinazolin-6-yl)-N-(pyridin-2-yl)benzamide] displayed an inhibition at 0.1 µM of less than 50%.
Consider `C=CC(=O)Nc1cccc(-c2cc(-c3ccc(Oc4ccccn4)cc3)c(N)c3cncnc23)c1` [C179, N-(3-(5-amino-6-(4-(pyridin-2-yloxy)phenyl)quinazolin-8-yl)phenyl)acrylamide], for which the inhibition at 0.1 µM is less than 50%.
In turn, `C=CC(=O)Nc1cccc(-c2cc(-c3ccc(Oc4cc(C(F)(F)F)ccn4)cc3F)cc3cncnc23)c1` [C180] returned an inhibition at 0.1 µM greater than 50%.
The same measure, in the same setting: the value for `C=CC(=O)N1CCC(c2cc(-c3ccc(Oc4ccccn4)cc3)c(N)c3cncnc23)C1` (stereo not shown) [C181, 1-(3-(5-amino-6-(4-(pyridin-2-yloxy)phenyl)quinazolin-8-yl)pyrrolidin-1-yl)prop-2-en-1-one] was less than 50%.
The molecule `C=CC(=O)Nc1cccc(-c2cc(-c3ccc(Oc4ccccc4)cc3)c(N)c3cncnc23)c1` [C182, N-(3-(5-amino-6-(4-phenoxyphenyl)quinazolin-8-yl)phenyl)acrylamide] returned an inhibition at 0.1 µM of less than 50%.

One may read the inhibition as how much of the control response was suppressed. By IC50 is commonly meant the concentration that inhibits the measured activity by half. A higher IC50 goes with weaker potency in that assay.

For the origin of these results see patent publication US10544106B2, “Certain chemical entities, compositions, and methods” (NeuPharma, Inc., priority 2016, dated 2020).
